Source: patent publication US20050209157A1, “Short bioactive peptides and methods for their use” (priority 2001, published 2005)
Where “and” joins values, the source holds several entries; their conditions need not be identical. Identical values can stand only once. Like-named read-outs stand apart in the source and are kept apart here. No end group written: not given here.

What was measured:
[1] = in vitro; conditions: human, WI38 normal lung fibroblast cells, LD50 WI38, WI38 normal lung fibroblast line, MTT, 24 hours with peptide
Description: (§3) Viability of cells is determined by the dye response. In the following procedure, approximately 1.5×10^4 cells per well were added and viability was determined with the cells in a semi-confluent state. The assay was performed in a 96-well microtiter plate. After addition of peptide, the plate was set for 24 hours. MTT (5 mg/ml in phenol red-free RPMI-1640, 20 μl) was added to each well including positive control wells untreated with peptide. The plate was incubated at 37° C. for 4 hours. The liquid contents of each well was removed, and isopropanol with 0.1 M HCl (100 μl) was added to each well. The plate was sealed with parafilm to prevent evaporation of the isopropanol. The plate is allowed to rest for 5-10 minutes in order to solubilize the precipitate. Purified water (100 μl) was added to each well. Absorbance was determined with an ELISA Reader instrument. Color intensity at 540 nm is proportional to viability of cells.
(§4) WI38 (ATCC No. CCL75) is a normal fibroblast line of lung diploid cells, MCF7 (ATCC No. HTB22) is a breast adenocarcinoma tumor cell line, SW480 (ATCC No. CCL228) is a colon adenocarcinoma tumor cell line, BMKC is a cloned melanoma line derived from Bowes melanoma line HMCB (ATCC No. CRL9607), H1299 (ATCC No. CRL5803) is a lung large cell carcinoma tumor line, HeLaS3 (ATCC No. CCL2.2) is a cervical epitheleal carcinoma tumor cell line, and PC3 (ATCC No. CRL1435) is a prostate adenocarcinoma tumor cell line.

[2] = tested on: S. aureus (MRSA); format: cell-based, Staphylococcus aureus; conditions: mean of three; 16 to 20 hours at 35° C.
[3] = tested on: S. pyogenes M76; assay: Antimicrobial assays II, NCCLS broth microdilution MIC; format: cell-based, Streptococcus pyogenes; conditions: mean of three; 16 to 20 hours at 35° C.
[4] = tested on: S. pneumoniae C719; assay: as above; format: cell-based, Streptococcus pneumoniae; conditions: mean of three, in µg/mL
[5] = tested on: BMKC; assay: Anti-cancer assay, MTT, LD50; format: cell-based; conditions: BMKC cloned melanoma line, 24 hours with peptide
From the text: (§1) Numbers are LD50 values (μg/mL).

[6] = tested on: SW480; assay: Anti-cancer assay, MTT, LD50; format: cell-based; conditions: SW480 colon adenocarcinoma line, 24 hours with peptide
From the text: as §1

[7] = tested on: MCF7; assay: Anti-cancer assay, MTT, LD50; format: cell-based; conditions: MCF7 breast adenocarcinoma line, MTT, 24 hours with peptide
From the text: as §1

[8] = tested on: S. epidermidis C621; format: cell-based, Staphylococcus epidermidis; conditions: mean of three; 16 to 20 hours at 35° C.
[9] = tested on: P. aeruginosa H774; format: cell-based, Pseudomonas aeruginosa; parameters: key to FIC Index: FIC = 0.25 + MIC antibiotic in combination / MIC alone; ≤0.5 = synergy; conditions: P. aeruginosa H744; nalidixic acid + peptide at ¼ MIC; 0.5 or less = synergy
Summary of the method: (§2)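 Efflux-mutant strains were tested with two-fold serial dilutions of chloramphenicol or nalidixic acid, alone and with peptide held at ¼ of its own MIC.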

[10] = tested on: P. aeruginosa H374; format: cell-based, Pseudomonas aeruginosa; parameters: key to FIC Index: FIC = 0.25 + MIC antibiotic in combination / MIC alone; ≤0.5 = synergy; conditions: for MIC Cm-comb.: MIC of chloramphenicol with peptide at ¼ MIC; for MIC Nal-comb.: MIC of nalidixic acid with peptide at ¼ MIC; for FIC Index: 0.5 or less = synergy
Summary of the method: as §2

[11] = tested on: P. aeruginosa; format: cell-based, Pseudomonas aeruginosa; parameters: key to FIC Index: FIC = 0.25 + MIC antibiotic in combination / MIC alone; ≤0.5 = synergy; conditions: P. aeruginosa H744; MIC of nalidixic acid with peptide at ¼ MIC
Summary of the method: as §2

[12] = tested on: S. pneumoniae C718; assay: Antimicrobial assays II, NCCLS broth microdilution MIC; format: cell-based, Streptococcus pneumoniae; conditions: mean of three
[13] = tested on: P. acne ATCC 6919; assay: as above; format: cell-based, Propionibacterium acnes; conditions: mean of three, in µg/mL
[14] = tested on: S. pyogenes ATCC19615; assay: as above; format: cell-based, Streptococcus pyogenes; conditions: mean of three, in µg/mL
[15] = in vitro; format: cell-based, human; conditions: human, human red blood cells, pH 7, hemolytic assay, concentration at 50% hemolysis, 1 hour at 37° C.; read-out: LD50
[16] = tested on: yeast (Saccharomyces cerevisiae); assay: Antimicrobial assay I, yeast assay in RPMI 1640; format: cell-based; conditions: RPMI 1640 media
[17] = tested on: PC3; assay: Anti-cancer assay, MTT, LD50; format: cell-based; conditions: 24 hours with peptide, prostate adenocarcinoma
From the text: as §1

[18] = tested on: H1299; assay: Anti-cancer assay, MTT, LD50; format: cell-based; conditions: 24 hours with peptide, lung large cell carcinoma
From the text: as §1

[19] = tested on: Pseudomonas aeruginosa ATCC 9027; assay: Antimicrobial assay I, MIC by OD measurement; format: cell-based; conditions: 37° C. for 24 hours, absorbance 620 nm
[20] = tested on: Staphylococcus aureus ATCC 6538; assay: Antimicrobial assay I, MIC by OD measurement; format: cell-based; conditions: 37° C. for 24 hours, absorbance 620 nm
[21] = tested on: HeLaS3; assay: Anti-cancer assay, MTT, LD50; format: cell-based; conditions: 24 hours with peptide, cervical carcinoma
From the text: as §1

[22] = tested on: WI38; conditions: MTT, 24 hours with peptide; normal fibroblast line
Description: as §3, §4

[23] = chloramphenicol + peptide at ¼ MIC
[24] = nalidixic acid + peptide at ¼ MIC, FIC=0.25+MIC comb/MIC alone

Compound | S. aureus (MRSA) MIC [2] | S. pyogenes M76 MIC [3] | S. pneumoniae MIC [4] | LD50 BMKC [5] | LD50 SW480 [6] | LD50 MCF7 [7] | S. epidermidis C621 MIC [8] | FIC Index [9] | MIC Cm-comb. [10] | MIC Nal-comb. [10] | FIC Index [10, 23] | FIC Index [10, 24] | MIC Nal-comb. [11] | S. pneumoniae MIC [12] | P. acne MIC [13] | S. pyogenes MIC [14] | yeast (MIC or MFC) [16] | PC3 LD50 [17] | H1299 LD50 [18] | paerug9027 (MIC) [19] | other results
FALLKALLKKAL-NH2 [P177, FALLKALLKKAL-NH2] | 8 µg/mL | 8 µg/mL | 16 | 310 µg/mL | 310 µg/mL | 190 µg/mL | 4 µg/mL | 0.75 | 8 µg/mL | 5000 µg/mL | 0.75 | 1.25 | 312 µg/mL | 32 µg/mL | 8 | 4 |  |  |  |  | CC50 at 24 h [1]: 270 µg/mL; HC50 at 1 h [15]: 400 µg/mL
GIGKFLKKAKKFGKAFVKILKK-NH2 [P42, reference compound] | 16 µg/mL | 4 µg/mL | 8 | 140 µg/mL | 34 µg/mL | 31 µg/mL | 2 µg/mL | 1.25 | 16 µg/mL | 5000 µg/mL | 1.25 | 1.25 | 624 µg/mL | 32 µg/mL | 2 | 4 | 200 µg/mL | 66 µg/mL | 150 µg/mL | > (> indicates greater than 200 μg/mL) | staph6538 (MIC) [20]: 10 µg/mL
FAKLLALALKKAL-NH2 [P97, FAKLLALALKKAL-NH2] | 8 µg/mL | 4 µg/mL | 16 and 32 |  |  |  | 4 µg/mL | 0.375 | 16 µg/mL | 5000 µg/mL | 1.25 | 1.25 | 78 µg/mL | 32 µg/mL | 8 and 16 | 4 and 8 | 50 µg/mL |  |  | 50 µg/mL | staph6538 (MIC) [20]: 5 µg/mL
FAKALKALLKALKAL-NH2 [P64] | 8 µg/mL | 4 µg/mL | 2 | 35 µg/mL |  | 80 µg/mL | 4 µg/mL | 1.25 | 16 µg/mL | 5000 µg/mL | 1.25 | 1.25 | 624 µg/mL | 8 µg/mL | 2 | 4 | 200 µg/mL | 46 µg/mL | 30 µg/mL | > (> indicates greater than 200 μg/mL) | HeLaS3 LD50 [21]: 30 µg/mL; staph6538 (MIC) [20]: 5 µg/mL
VAKKLAKLAKKLAKLAL-NH2 [P50] | 4 µg/mL | 8 µg/mL | 16 | 40 µg/mL | 46 µg/mL | 32 µg/mL | 4 µg/mL | 1.25 | 16 µg/mL | 5000 µg/mL | 1.25 | 1.25 | 624 µg/mL | 32 µg/mL | 4 | 4 | 50 µg/mL | 54 µg/mL | 7 µg/mL | 15 µg/mL | HeLaS3 LD50 [21]: 33 µg/mL; staph6538 (MIC) [20]: 5 µg/mL
FAKKLAKKLKKLAKKLAKKWKL-OH [P72] | 16 µg/mL | 16 µg/mL | 16 | 290 µg/mL | 82 µg/mL | 93 µg/mL | 4 µg/mL | 0.75 | 8 µg/mL | 2500 µg/mL | 0.75 | 0.75 | 312 µg/mL | > 128 µg/mL | 2 | 16 |  | 63 µg/mL | 160 µg/mL |  | CC50 at 24 h [1]: 125 µg/mL; WI38 LD50 [22]: 125 µg/mL; HeLaS3 LD50 [21]: 240 µg/mL; HC50 at 1 h [15]: 110 µg/mL
CC(C)C[C@H](NC(=O)[C@H](C)NC(=O)[C@H](CC(C)C)NC(=O)[C@H](C)NC(=O)[C@H](CC(C)C)NC(=O)[C@H](CCCCN)NC(=O)[C@H](C)NC(=O)[C@H](CC(C)C)NC(=O)[C@H](CCCCN)NC(=O)[C@H](CCCCN)NC(=O)[C@H](C)NC(=O)[C@H](CC(C)C)NC(=O)[C@H](CCCCN)NC(=O)[C@H](C)NC(=O)[C@H](CC(C)C)NC(=O)[C@H](CCCCN)NC(=O)[C@H](CCCCN)NC(=O)[C@H](C)NC(=O)[C@@H](N)C(C)C)C(N)=O [P504] | 4 µg/mL | 8 µg/mL | 8 |  |  |  | 4 µg/mL | 2.25 | 16 µg/mL | 5000 µg/mL | 1.25 | 1.25 | 1248 µg/mL | 64 µg/mL | 4 | 16 |  |  |  |  | HC50 at 1 h [15]: 70 µg/mL
